Experimental findings from US10329304B2, “Compounds and methods for inhibition of hedgehog signaling and phosphodiesterase” (Vanderbilt University, priority 2014, dated 2019) are described below.

“And” between values parts separate entries of the source, which are not always exact repeats. Identical values can stand only once. “Also recorded” adds a separate entry of the source. Like-named read-outs stand apart in the source and are kept apart here.

One assay has as its system MCF7. As to the kind of experiment: Cell viability assay (CellTiter-Blue, 72 hr). Type of assay: cell-based. The settings on record: human cancer cells. As to the method:
(§1) Cancer cell lines were seeded in 96 well tissue culture plate at a low density (10,000 cells per well) and treated with varying concentrations of Eggmanone. After 72 hr incubation, CellTiter-Blue Cell Viability Assay (Promega, Madison, Wis.) was then performed according to manufacturer's protocol. Absorbance was then measured in a Modulus Microplate reader (Promega, Madison, Wis.) at 590 nm and compared to cells treated with DMSO.
Cancer cell lines were seeded in 96 well tissue culture plate at a low density and treated with varying concentrations of compounds identified in Table 7. After 72 hr incubation, CellTiter-Blue Cell Viability Assay (Promega, Madison, Wis.) was then performed according to manufacturer's protocol. Absorbance was then measured in a Modulus Microplate reader (Promega, Madison, Wis.) at 590 nm and compared to cells treated with DMSO.

The test system of a further assay is IFT88 localization. Description: IFT88 immunostaining in NIH3T3 cells. Type of assay: cell-based. Conditions: EGM 5 μM; ciliobrevin D 100 μM. From the text: To investigate whether the disruption of the cilium-to-nucleus trafficking of Gli2 by eggmanone was due to a general defect in the retrograde transport within the primary cilium, we compared the effect of the cytoplasmic dynein motor inhibitor ciliobrevin D with the effect of eggmanone on the intraflagellar transport protein 88 (IFT88) trafficking^19. […] Thus, the effects of eggmanone on Gli2 trafficking is specific, rather than an indirect consequence of a global defect in ciliary transport machinery.

Another assay relates to SmoM2-Light cells. Description: Cell viability of SmoM2-Light cells. It is filed as cell-based. As for the experimental part:
as §1

The test system of assay [1] is total cellular cAMP levels. As to the kind of experiment: cAMP assay (total cellular cAMP, EIA chemiluminescence). Type of assay: cell-based. As for the experimental part: Shh-Light2 cells were seeded in a 96-well plate and incubated overnight. Varying concentrations of Rolipram or Eggmanone (0.013 uM-30 uM) or DMSO only were added to the cells in the absence of serum and incubated 30 minutes, at which time forskolin was added for a final concentration of 1 uM. After an additional 15 minutes, cells were washed with PBS and assayed for cAMP levels using EIA based chemiluminescence kit according to the manufacturer's protocol (Cell Signaling Technologies, Danvers, Mass.).

Assay [2] concerns PDE4D3-induced Hh reporter activity. As to the kind of experiment: Hh reporter activity in Shh-Light2 cells transfected with PDE4D3. Type of assay: cell-based. The settings on record: 5 μM. As for the experimental part: For Hh signaling assays, Shh-Light2 cells stably transfected with Gli-Luciferase reporter construct were used along with Shh-conditioned media, as previously described^7. Alternatively, 3 μM purmorphamine or 20 nM Smoothened agonist (SAG) (Santa Cruz Biotechnology, Santa Cruz, Calif.) was used to induce Hh signaling. Reporter cells were seeded in 96-well plates and incubated overnight with the various concentrations of eggmanone and Shh-conditioned media. To assess the effects of overexpression of Gli-2, PDE4D3 and DN-PDE4D3 on Hh signaling, mammalian expression vectors containing these constructs were transfected into Shh-Light2 cells in 96-well plates using Fugene6 (Roche), according to manufacturer's instructions. The transfected or Shh-stimulated cells were incubated overnight with the various concentrations of compound. The cells were then lysed, and cell extracts were subjected to Steady-Glo luciferase assay (Promega) according to manufacturer's instructions. The results were normalized to cell titer, as determined using Cell Titer-Glo luminescence assay (Promega).

Another assay has as its system BMP signaling (BRE-luc). Description: BMP4-responsive reporter (BRE-luc) in C2C12BRA cells. Conditions: stimulated with BMP4 ligand. Type of assay: cell-based.
A further assay relates to DU145. As to the kind of experiment: Cell viability assay (CellTiter-Blue, 72 hr). Type of assay: cell-based, Human. An outline of the steps: (§2)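 Seed cells at low density, treat with varying compound concentrations, incubate, then measure absorbance at 590 nm and normalise to DMSO-treated cells.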
The next assay deals with HeLa. As to the kind of experiment: Cell viability assay (CellTiter-Blue, 72 hr). Type of assay: cell-based, Human. An outline of the steps: as §2
Another assay concerns SW480. Description: Cell viability assay (CellTiter-Blue, 72 hr). Conditions: SW480; human cancer cells; read-out: CELL KILLING EC50 (μM) Colon SW480. It is filed as cell-based, Human. An outline of the steps: as §2
A further assay relates to zebrafish embryos. As to the kind of experiment: Zebrafish embryo phenotypic assay (ZF). Type of assay: in vivo. The settings on record: for Hh-deficient mutant phenotype in embryos: 2 μM from 4 hpf where stated. In short, it runs like this:
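Wild-type AB zebrafish embryos (~10) in E3 egg water dosed at 5 hours post-fertilization from 1 mM or 10 mM DMSO stock. Scored for gross morphological changes at 24, 48 and 72 hpf. Screening run used 5 μM final, added ~4 hpf, incubated at 28.5 °C.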

The target in the next assay is PDE4D (Homo sapiens, UniProt Q08499). As to the kind of experiment: PDE4 inhibition assay (PDE4D IC50). It is filed as biochemical. The settings on record: read-out: PDE4D IC50. An outline of the steps:
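PDE4D incubated 60 min at room temperature in duplicate with 100 nM FAM-cAMP and compound (1% DMSO final) in Tris-HCl pH7.4, 10 mM MgCl2, 0.05% Tween 20. FAM-AMP detected with binding-agent nanobeads after a further 60 min, read at 485/528 nm.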

The next assay addresses consensus PDE4D sequence (Homo sapiens, UniProt Q08499). As to the kind of experiment: PDE4D inhibition (consensus PDE4D sequence). It is filed as biochemical.
Where [3] appears, read: DU-145, human cancer cells, read-out: CELL KILLING EC50 (μM) Prostate DU145.
Setting [4] is: human cancer cells, read-out: CELL KILLING EC50 (μM) Cervix HeLa.

Chain of consensus PDE4D sequence (Q08499 whole entry): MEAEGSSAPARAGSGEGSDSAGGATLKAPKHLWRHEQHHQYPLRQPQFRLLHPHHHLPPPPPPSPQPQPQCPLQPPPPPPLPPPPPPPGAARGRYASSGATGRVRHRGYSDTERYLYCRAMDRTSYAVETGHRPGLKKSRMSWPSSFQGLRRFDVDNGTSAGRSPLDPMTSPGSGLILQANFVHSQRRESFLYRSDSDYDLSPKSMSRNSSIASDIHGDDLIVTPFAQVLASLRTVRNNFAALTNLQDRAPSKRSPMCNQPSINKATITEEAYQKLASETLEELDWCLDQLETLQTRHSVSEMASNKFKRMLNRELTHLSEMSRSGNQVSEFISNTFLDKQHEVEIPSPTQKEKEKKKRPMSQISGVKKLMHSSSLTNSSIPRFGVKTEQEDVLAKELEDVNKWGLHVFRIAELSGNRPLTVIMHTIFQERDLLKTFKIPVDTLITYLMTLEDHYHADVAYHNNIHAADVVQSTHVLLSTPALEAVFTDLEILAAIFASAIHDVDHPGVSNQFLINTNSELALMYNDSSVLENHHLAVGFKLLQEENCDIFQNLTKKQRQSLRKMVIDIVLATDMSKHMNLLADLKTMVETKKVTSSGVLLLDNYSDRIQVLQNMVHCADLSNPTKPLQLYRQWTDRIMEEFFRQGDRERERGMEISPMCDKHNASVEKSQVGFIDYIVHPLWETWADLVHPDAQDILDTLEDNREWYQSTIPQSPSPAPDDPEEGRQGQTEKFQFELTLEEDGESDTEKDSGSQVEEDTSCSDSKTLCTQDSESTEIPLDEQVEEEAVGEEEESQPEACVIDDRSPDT
Excerpt for consensus PDE4D sequence: First, the contribution of PDE4 was revisited as a potential explanation for the observed mechanistic drift.

Turning to `C=C(C)Cn1c(SCC(=O)c2cccs2)nc2sc3c(c2c1=O)CCCC3` [EGM, Eggmanone], the “CELL KILLING EC50 (μM) Breast MCF7” value in the assay on MCF7 was “UnCh”. For the same molecule, in the assay with IFT88 localization, the “IFT88 localization in the cilium” value is on record as “did not affect IFT88 localization”. Moreover, the “Viability of SmoM2 cells” value with SmoM2-Light cells (listed as Egm) is recorded as “rapid (within 24-hrs) decline in viability”. For the same molecule, the “Total cellular cAMP levels” value is on record as “without raising total cellular cAMP content” in assay [1] and “only caused small increase at concentrations above those required to inhibit Hh signaling” in [1] (listed as Egm). Also, in [2], the “Hh reporter activity induced by wild-type PDE4D3 overexpression” value is “abolished”. In addition, the “BMP4-responsive reporter (BRE-luc) activity” value in the assay with BMP signaling (BRE-luc) is given as “had no significant effects on BMP4-responsive reporter (BRE-luc) activity”. For the same molecule, the EC50 in the assay on DU145 (setting [3]) was determined as 41.9 µM; in the assay on HeLa (setting [4]) it was 12.4 µM; with SW480, 0.534 µM. The “Hh-deficient mutant phenotype in embryos” value in the assay with zebrafish embryos was “exhibited range of phenotypes found in Hh pathway mutants”.
Regarding `C=C(C)Cn1c(SCC(=O)c2cccs2)nc2sc3c(c2c1=O)CCCC3` [Eggmanone, 3-(2-methylallyl)-2-((2-oxo-2-(thiophen-2-yl)ethyl)thio)-5,6,7,8-tetrahydrobenzo[4,5]thieno[2,3-d]pyrimidine-4(3H)-one], the IC50 on PDE4D is 0.89 µM and 0.893 µM. Moreover, in the assay with IFT88 localization, the “IFT88 localization in the cilium” value was “had no effect on IFT88 localization or cilium morphology”. For the same molecule, the “Viability of SmoM2 cells” value in the assay with SmoM2-Light cells was “efficiently and selectively killed SmoM2-Light cells”. For the same molecule, the “Total cellular cAMP levels” value in [1] was “had no effect on total cellular cAMP content; also recorded: did not significantly increase total cAMP levels”; in assay [1] (listed as eggmanone), “did not increase total cAMP levels”. Also, the “Hh reporter activity induced by wild-type PDE4D3 overexpression” value is “abrogated; also recorded: abolished” in assay [2] and “abrogated” in assay [2] (listed as eggmanone). Further, the “BMP4-responsive reporter (BRE-luc) activity” value in the assay with BMP signaling (BRE-luc) was “did not affect BMP-responsive luciferase reporter activity; also recorded: had no significant effects on BMP4-responsive reporter (BRE-luc) activity”; with BMP signaling (BRE-luc) (listed as eggmanone), “did not affect BMP-responsive luciferase reporter activity”. Further, the “Hh-deficient mutant phenotype in embryos” value with zebrafish embryos is “caused a number of phenotypes resembling those of Hh-deficient mutant embryos; also recorded: exhibited range of phenotypes found in Hh pathway mutants”; in the assay with zebrafish embryos (listed as eggmanone), “caused a number of phenotypes resembling those of Hh-deficient mutant embryos”.
As to `CCCn1c(SCC(=O)c2cccs2)nc2sc3c(c2c1=O)CCCC3` [Formula 9e], the IC50 at PDE4D (mean ± SEM, normalized to DMSO) turned out to be 0.486 ± 0.001 µM. Moreover, the “PDE4D inhibition in words” value at consensus PDE4D sequence is recorded as “tracked well with EGM1's IC50:EC50 ratio”.
Regarding `C=C(C)Cn1c(SCC(=O)c2ccccc2)nc2sc3c(c2c1=O)CCCC3` [Formula 9g], the IC50 on PDE4D (mean ± SEM, normalized to DMSO) amounted to 0.965 ± 0.1 µM. Also, the “PDE4D inhibition in words” value at consensus PDE4D sequence was “tracked well with EGM1's IC50:EC50 ratio”.
`O=C(CSc1nc2sc3c(c2c(=O)n1C1CC1)CCCC3)c1cccs1` [JEH-3-039-2]: the “ZF Phenotype EC100” value with zebrafish embryos (wild-type embryonic zebrafish, dosed 5 hpf) came to 0.1 µM.
With `C=CCn1c(SCC(=O)c2cccs2)nc2sc3c(c2c1=O)CCCC3` [JEH-3-039-3], in the assay with MCF7, the “CELL KILLING EC50 (μM) Breast MCF7” value was “UnCh”. In addition, the EC50 with DU145 (setting [3]) was 71 µM; in the assay on HeLa (setting [4]) it was 36.9 µM; in the assay on SW480, 3.63 µM.
Regarding `C=C(C)Cn1c(SCC(=O)c2ccncc2)nc2sc3c(c2c1=O)CCCC3` [JEH-3-048-1], at PDE4D, the IC50 worked out at 16 µM. For the same molecule, the “CELL KILLING EC50 (μM) Breast MCF7” value in the assay on MCF7 is listed as “UnCh”. In addition, the EC50 came to 100 µM with DU145 (setting [3]), 23.6 µM with HeLa (setting [4]) and 1.87 µM with SW480.
In the case of `C=C(C)Cn1c(SCC(=O)c2ccccn2)nc2sc3c(c2c1=O)CCCC3` [JEH-3-063], the IC50 on PDE4D came out at 4.9 µM. In addition, the “CELL KILLING EC50 (μM) Breast MCF7” value with MCF7 is reported as “UnCh”. Also, the EC50 was 0.684 µM in the assay with DU145 (DU-145, 72 h, read-out: EC50 (50% reduction of viable cell count at 72 hours), DU145, Human Prostate Adenocarcinoma); 0.684 µM in the assay on DU145 (setting [3]); 9.2 µM with HeLa (72 h, read-out: EC50 (50% reduction of viable cell count at 72 hours), Human Cervical Adenocarcinoma); 9.18 µM with HeLa (setting [4]); 8.05 µM in the assay with SW480.
With `C=C(C)Cn1c(SCC(=O)c2nccs2)nc2sc3c(c2c1=O)CCCC3` [JEH-3-069-1], in the assay on MCF7, the “CELL KILLING EC50 (μM) Breast MCF7” value is on record as “UnCh”. Also, the EC50 in the assay with DU145 (setting [3]) was 47.5 µM; with HeLa (setting [4]) it was 100 µM; in the assay on SW480, 6.92 µM.
